In patent US9187539B2, “Compositions having antiangiogenic activity and uses thereof” (The Johns Hopkins University, priority 2005, dated 2015):

Experiments:
[1] = test system: human umbilical vein endothelial cells (HUVECs); test: HUVEC proliferation assay (WST-1), 2- and 4-day, 5,000 cells per well; type: cell-based; settings: for concentration-response profile in words: 2- and/or 4-day assay; for anti-proliferative activity in words at 0.01 μg/ml: 0.01 μg/ml peptide
Method: The effect of the various peptides on cell proliferation was assayed, by administering the peptides to human umbilical vein endothelial cells (HUVECs) in culture. 45 peptides belonging to four distinct families of proteins including the thrombospondin-1 containing proteins, the C-X-C chemokines, collagen derived peptides and peptides from tissue inhibitors of metalloproteinases were tested. The potency of each of the peptides was tested using the proliferation assay at 2 days and 4 days following administration of the peptides and a similar assay using a different cell density at 3 days. In the four-day experiments, the cell medium was changed after the second day of incubation and the peptide was replaced at the initial concentration together with the medium. TNP-470 is an antiangiogenic compound that was used as a positive control for assessing anti-angiogenic efficacy. The activity of each polypeptide was, therefore, expressed as a percentage of TNP-470 activity, i.e., the optical density obtained experimentally is scaled such that the negative control is 0% and the positive control is 100% as explained below (FIG. 4). Each plate included a well having HUVEC cells that received 0.1 μg/ml TNP-470. For example, a peptide having the same effect on endothelial cell proliferation would have 100% of the activity of TNP-470. Note that activity could exceed 100%. In this assay, the effects of the predicted anti-angiogenic fragments on the ability of HUVECs to proliferate was characterized. […] A commonly used methodology to test for proliferation is to monitor the viability and metabolic activity of endothelial cells, in the presence of the anti-angiogenic fragments at different concentrations and various time steps. The cell proliferation reagent WST-1 was used as a substrate/assay to measure the metabolic activity of viable cells. WST-1 is a colorimetric, non-radioactive assay and can be performed in a microplate. It is suitable for measuring cell proliferation, cell viability or cytotoxicity. The assay is based on the reduction a red tetrazolium salt, WST-1, by viable, metabolically active, cells to form the yellow formazan crystals soluble in the cell medium. […] The cells are cultured described above. Once cells have reached 80% confluence they are trypsinized and resuspended in EGM-2. The cell density is estimated using a hemocytometer. All of the endothelial cells used were from passage 4 to passage 8. The proliferation assay involved two steps. During the first step the cells, approximately 5,000 cells per well for a 96-well plate, were seeded without any extracellular matrix substrate on the wells overnight (8 hours). The initial cell culture medium was removed using a multichannel pipetor and the candidate peptides were applied. A logarithmic scale of four different concentrations of 0.01 μg/ml, 0.1 μg/ml, 1 μg/ml and 10 μg/ml of each peptide was used. Each of the concentrations was tested in quadruplicate. The viability of the cells was challenged at 2 and 4 days upon the application of the peptide. As a positive control for decreased viability, 0.1 μg/ml of TNP-470 (O-(chloro-acetyl-carbamoyl) fumagillol, a synthetic analogue of fumagillin; TNP-470 was provided by NCI, was provided along with the medium, and as a negative control for normal viability, the cells were cultured without the addition of any agent. The cells were then incubated with 10 μl per well of the red WST-1 reagent for approximately 2 to 4 hours. During this incubation period, viable cells converted, in their mitochondria, the red WST-1 to the yellow formazan crystals which dissolve in the medium. The second step of the assay involved the quantification of the changes in proliferation which was performed by measuring the change in color after lysing the cells. The samples were read using the ELISA plate reader Victor3 V (Perkin Elmer) at a wavelength of […]. The amount of color produced is directly proportional to the number of viable cells. […]

[2] = test system: human umbilical vein endothelial cells (HUVECs); test: HUVEC proliferation assay (WST-1), 3-day, 2,000 cells per well; type: cell-based; settings: 3-day assay; for anti-proliferative activity in words at high peptide concentration: high/highest applied concentration (30 μg/ml where stated); for anti-proliferative activity in words: overall; for anti-proliferative activity (maximum or stated level), scaled so that TNP-470 = 100%: 0.01-30 μg/ml
Method: In addition to the 2 and 4 day proliferation experiment where 5,000 cells per well were seeded, the effects of the peptides on the proliferating ability of HUVECs were also studied using cells seeded at a density of 2,000 cells per well. This lower cell seeding density allowed the experiment to be extend for an additional day without changing the cell medium. The effects of the peptides when applied to the cells for 3 consecutive days is also reported herein. The proliferation assay again involved two steps. During the first step 2,000 cells per well for a 96-well plate were seeded without any extracellular matrix substrate on the wells overnight (8 hours). The initial cell culture medium was removed using a multichannel pipetor. To synchronize the cells, the cells were serum starved for 4 hours and the candidate peptides were applied. During serum starvation the cell culture medium was changed from a “full” medium to the “basal” medium, which contained no growth factors or serum. Serum starvation for 4 hours had no effect on the proliferation of the cells. For this assay, the logarithmic scale of four different concentrations of 0.01 μg/ml, 0.1 μg/ml, 1 μg/ml and 10 μg/ml of peptide was used. In addition, a larger concentration of 30 μg/ml peptide was also applied. Each of the concentrations was again tested in quadruplicate. After the third day of peptide application the WST-1 dye was applied for approximately 2 to 4 hours (usually after 3 hours the color saturates). The proliferation was later tested on the ELISA plate reader as described for the 2 and 4 day assay. Note that the 2- and 4-day and the 3-day protocols differed in that 5,000 cells/well versus 2,000 cells/well seeded, respectively.

[3] = 2- and 4-day assay, day not specified
[4] = 2- and 4-day assay, day not specified or constant throughout the four days
[5] = 10 μg/ml peptide, 2- and 4-day assay
[6] = 4 days of peptide application, 0.01-10 μg/ml

QPWSQCSATCGDGVRERRR [SEQ ID NO: 64, THSD1 AAQ88516.1: 347-365]
peptide concentration at which maximum activity was observed [1, 3]: 0.01 µg/mL
anti-proliferative activity (maximum or stated level), scaled so that TNP-470 = 100% [1, 4]: approximately 20%
anti-proliferative activity in words at high peptide concentration [2]: substantial increase in activity

SAWRACSVTCGKGIQKRSR [SEQ ID NO: 43, Fibulin-6 CAC37630.1: 1574-1592]
anti-proliferative activity (maximum or stated level), scaled so that TNP-470 = 100% [1, 4]: 30%
concentration-response profile in words [2]: peptide activity increasing as concentration increased

SEWSDCSVTCGKGMRTRQR [SEQ ID NO: 73, VSGP/F-spondin BAB18461.1: 621-639]
concentration-response profile in words [1]: biphasic profile
anti-proliferative activity in words ([1]; 2 days of peptide application): not statistically significant
peptide concentration at which maximum activity was observed ([1]; 4 days): 0.01 µg/mL
anti-proliferative activity in words ([1]; 4 days of peptide application): notable activity
anti-proliferative activity in words at high peptide concentration [2]: increased activity

SKWSECSRTCGGGVKFQER [SEQ ID NO: 29, ADAMTS-18 Q8TE60: 596-614]
anti-proliferative activity, TNP-470 = 100% ([1]; 1 μg/ml peptide, 2 days): 30%
anti-proliferative activity in words at 10 μg/ml [1, 5]: reduced
concentration-response profile in words [1]: biphasic response
anti-proliferative activity in words at high peptide concentration [2]: significantly increased

SPWSKCSAACGQTGVQTRTR [SEQ ID NO: 39, CILP AAQ89263.1: 156-175]
anti-proliferative activity, TNP-470 = 100% [1, 5]: 5%
anti-proliferative activity, TNP-470 = 100% ([1]; 0.01 and 0.1 μg/ml peptide, 2- and 4-day assay): 15%
peptide concentration at which maximum activity was observed [1, 3]: 1 µg/mL
anti-proliferative activity (maximum or stated level), scaled so that TNP-470 = 100% [1, 4]: ~30%
concentration-response profile in words [1]: biphasic activity
peptide concentration at which maximum activity was observed [2]: 0.1 µg/mL

SPWSPCSGNCSTGKQQRTR [SEQ ID NO: 65, THSD3 AAH33140.1: 280-298]
anti-proliferative activity in words ([1]; 2- and 4-day assay, overall): did not effect endothelial cell proliferation
anti-proliferative activity in words [2]: did not effect endothelial cell proliferation

SPWSPCSTSCGLGVSTRI [SEQ ID NO: 74, WISP-1 AAH74841.1: 221-238]
anti-proliferative activity in words ([1]; 2 days of peptide application): not statistically significant
anti-proliferative activity (maximum or stated level), scaled so that TNP-470 = 100% [1, 6]: ~20%
anti-proliferative activity in words at high peptide concentration [2]: reached higher values
anti-proliferative activity in words [2]: intermediate levels

SPWSQCSVRCGRGQRSRQVR [SEQ ID NO: 69, TSRC1 AAH27478.1: 140-159]
concentration-response profile in words [1]: biphasic
anti-proliferative activity in words ([1]; 2 days of peptide application): minimal activity
peptide concentration at which maximum activity was observed ([1]; 4 days): 0.1 µg/mL
anti-proliferative activity in words ([1]; 4 days of peptide application): prominent activity
anti-proliferative activity (maximum or stated level), scaled so that TNP-470 = 100% [1, 6]: 25%
anti-proliferative activity in words at high peptide concentration [2]: activity increased

SPWSQCTASCGGGVQTR [SEQ ID NO: 24, ADAMTS-16 Q8TE57: 1133-1149]
concentration-response profile in words [1]: biphasic response
anti-proliferative activity in words ([1]; 4 days of peptide application): strong activity
anti-proliferative activity (maximum or stated level), scaled so that TNP-470 = 100% [1, 6]: 30%
anti-proliferative activity in words at high peptide concentration [2]: increase in peptide activity

TAWGPCSTTCGLGMATRV [SEQ ID NO: 75, WISP-2 AAQ89274.1: 199-216]
anti-proliferative activity in words at 0.01 μg/ml ([1]; 2- and 4-day assay): quite potent
concentration-response profile in words [1]: biphasic response
anti-proliferative activity (maximum or stated level), scaled so that TNP-470 = 100% [2]: 20%

TEWSACNVRCGRGWQKRSR [SEQ ID NO: 71, UNC5D AAQ88514.1: 259-277]
anti-proliferative activity (maximum or stated level), scaled so that TNP-470 = 100% [1, 4]: 20%
concentration-response profile in words [2]: biphasic
anti-proliferative activity (maximum or stated level), scaled so that TNP-470 = 100% [2]: 30%

TEWSACSKTCGMGISTRV [SEQ ID NO: 41, CTGF CAC44023.1: 204-221]
anti-proliferative activity in words ([1]; 2 days of peptide application): low
peptide concentration at which maximum activity was observed ([1]; 4 days): 1 µg/mL
anti-proliferative activity (maximum or stated level), scaled so that TNP-470 = 100% [1, 6]: 40%
anti-proliferative activity in words [2]: resembled those observed in the 2-day assay

TEWSVCNSRCGRGYQKRTR [SEQ ID NO: 70, UNC5C AAH41156.1: 267-285]
anti-proliferative activity in words ([1]; 2 days of peptide application): negligible activity
anti-proliferative activity (maximum or stated level), scaled so that TNP-470 = 100% [1, 6]: 20%
anti-proliferative activity, TNP-470 = 100% ([2]; 30 μg/ml peptide): 40%
peptide concentration at which maximum activity was observed [2]: 10 µg/mL
anti-proliferative activity (maximum or stated level), scaled so that TNP-470 = 100% [2]: 20%

TEWTACSKSCGMGFSTRV [SEQ ID NO: 46, NOVH AAL92490.1: 211-228]
peptide concentration at which maximum activity was observed [1, 3]: 0.01 µg/mL
anti-proliferative activity (maximum or stated level), scaled so that TNP-470 = 100% [1, 4]: 20%
concentration-response profile in words [2]: monotonic increase with concentration

TKWTPCSRTCGMGISNRV [SEQ ID NO: 76, WISP-3 CAB16556.1: 191-208]
anti-proliferative activity in words at 0.01 μg/ml ([1]; 2- and 4-day assay): shows potency
concentration-response profile in words [1]: biphasic
concentration-response profile in words [2]: increased significantly as the concentration increased

TQWTSCSKTCNSGTQSRHR [SEQ ID NO: 38, C6 AAB59433.1: 30-48]
anti-proliferative activity (maximum or stated level), scaled so that TNP-470 = 100% [1, 6]: 35%
concentration-response profile in words [2]: biphasic
anti-proliferative activity (maximum or stated level), scaled so that TNP-470 = 100% [2]: 25%

TSWSQCSKTCGTGISTRV [SEQ ID NO: 42, CYR61 AAR05446.1: 234-251]
peptide concentration at which maximum activity was observed [1, 3]: 0.01 µg/mL
anti-proliferative activity (maximum or stated level), scaled so that TNP-470 = 100% [1, 4]: 30%
concentration-response profile in words [1]: biphasic
peptide concentration at which maximum activity was observed [2]: 0.1 µg/mL
anti-proliferative activity (maximum or stated level), scaled so that TNP-470 = 100% [2]: 30%

WDECSATCGMGMKKRHR [SEQ ID NO: 72, VSGP/F-spondin BAB18461.1: 567-583]
anti-proliferative activity in words ([1]; 2 days of peptide application): not statistically significant
anti-proliferative activity (maximum or stated level), scaled so that TNP-470 = 100% [1, 6]: 10%
anti-proliferative activity in words [2]: exhibited activity

WTRCSSSCGRGVSVRSR [SEQ ID NO: 66, THSD6 AAH40620.1: 44-60]
peptide concentration at which maximum activity was observed [1, 3]: 0.1 µg/mL
concentration-response profile in words [1]: biphasic
anti-proliferative activity (maximum or stated level), scaled so that TNP-470 = 100% ([1]; 2 days of peptide application, 0.01-10 μg/ml): approximately 20%
concentration-response profile in words [2]: biphasic
anti-proliferative activity (maximum or stated level), scaled so that TNP-470 = 100% [2]: ~30%

YCNIHQVCHYAQRNDRSYWL [SEQ ID NO: 86, α4CIV CAA56943.1: 1524-1543]
anti-proliferative activity in words ([1]; 2- and 4-day assay, overall): low anti-proliferative activity
concentration-response profile in words [2]: increasing at higher peptide concentrations
anti-proliferative activity in words [2]: greater
